In patent US20250235545A1, “POLYPEPTIDE CONJUGATE AND USE THEREOF” (SHANGHAI CHIXI BIOMEDICAL TECHNOLOGY CO., LTD, priority 2024, published 2025):
Converted amounts (≈) assume the structure as drawn. Where two headings read alike, the source gives them in different places. Where a SMILES comes first, the peptide text is derived from it. The star is where a group is joined. X3 = CC[C@@]1(O)C(=O)OCc2c1cc1n(c2=O)Cc2c-1nc1ccccc1c2CCN(C1CC1)*; Propanoyl(3-maleimido) = O=C1C=CC(=O)N1CCC(=O)*; PEG6 = NCCOCCOCCOCCOCCOCCOCCC(=O)O

Tests used:
[1] = test system: sarcoma SJSA-1 tumor model
Procedure: Test objective: To investigate the antitumor efficacy of the above compounds in an animal tumor model of sarcoma SJSA-1.
(§1) Test drug: Polypeptide conjugate, Irinotecan, Belotecan and normal saline control group.
(§2) Test animals: 6-8 weeks old BALB/c mice, all female.
(§3) SJSA-1 cells were purchased from ATCC and cultured in a DMEM medium containing 10% fetal bovine serum at 37° C. in 5% CO2. Passaging was performed every three days, and cells within 15 generations were used. 2×10^7 corresponding cells were injected into right chests of nude mice subcutaneously. After a volume of the tumors reached at least 100 mm^3, the mice were grouped randomly, with three mice in each group. Then treatment was started, and the day when the treatment was started was the first day. […] The control group was administered with normal saline. Administration was performed once a week for three weeks.
as §3

[2] = Tumor homogenate activation efficiency, small cell lung cancer tissue (Example 28); format: in vitro ADME; settings: pH 5.0, 37° C., 2 h; Table 5
Procedure: (§4) Buffer preparation: 50 mM PH buffer (MES), 250 mM NaCl, pH adjusted to 5.0 with 0.5 M of sodium hydroxide.
(§5) The polypeptide conjugate was prepared into a 1 mg/ml solution with pH 5.0 buffer, 100 μg of tumor tissue homogenate was added, (the tumor tissue homogenate was the homogenate of tumor tissues prepared with a Jingxin F6/10 handheld homogenizer), and the solution was placed at 37° C. for 2 h. The tumor tissue homogenate could effectively activate the polypeptide conjugate and release Belotecan, and the activation efficiencies of the drugs in tumor tissues were compared by high-performance liquid chromatography (HPLC) allowing determination of a decrease in the compounds and an increase in Belotecan:
(§6) Release percentage=peak area of Belotecan/total peak area of Belotecan and all other Belotecan-containing compounds

[3] = Tumor homogenate activation efficiency, non-small cell lung cancer tissue (Examples 28, 37); format: in vitro ADME; settings: pH 5.0, 37° C., 2 h; Table 5
Procedure: as §4, §5, §6
as §5, with “HPLC” for “high-performance liquid chromatography (HPLC)”, “Belotecan: […]” for “Belotecan:”

[4] = Tumor homogenate activation efficiency, ovarian cancer tissue (Examples 28, 37); format: in vitro ADME; settings: pH 5.0, 37° C., 2 h; Table 5
Procedure: as §4, §5, §6
as §5, with “HPLC” for “high-performance liquid chromatography (HPLC)”, “Belotecan: […]” for “Belotecan:”

[5] = Homogenate activation efficiency, heart tissue (Examples 28, 37); format: in vitro ADME; settings: pH 5.0, 37° C., 2 h; Table 5
[6] = Tumor homogenate activation efficiency, breast cancer tissue (Examples 28, 37); format: in vitro ADME; settings: pH 5.0, 37° C., 2 h; Table 5
Procedure: as §4, §5, §6
as §5, with “HPLC” for “high-performance liquid chromatography (HPLC)”, “Belotecan: […]” for “Belotecan:”

[7] = test system: colo320 colorectal cancer tumor model
Procedure: Test objective: To investigate the antitumor efficacy of the above compounds in an animal tumor model of colo320 colorectal cancer.
as §1, §2
as §3, with “Passaging” for “SJSA-1 cells were purchased from ATCC and cultured in a DMEM medium containing 10% fetal bovine serum at 37° C. in 5% CO2. Passaging”, “used. 7.5×10^6” for “used. 2×10^7”, “least 120” for “least 100”, “for four” for “for three”

[8] = test system: SKBR3 (breast cancer tissue); assay: cells; format: cell-based; settings: CCK8, 48 h; for IC50 SKBR3 (breast cancer tissue): Table 1
Procedure: (§7) Different types of cells were cultured with complete media (RPMI1640 (DMEM high sugar medium)+10% fetal bovine serum+1XP/S+sodium pyruvate 1 mM solution) in an incubator at 37° C. and 5% CO2 until the cells grew to a sufficient number, and the cells were collected, centrifuged at 1,000 g for 5 min, resuspended with an appropriate volume of a 10% RMPI1640 (DMEM high sugar medium) medium and counted. In a 96-well culture plate, 100 μL of cell culture fluid containing different concentrations of drugs was added, control wells (0.1% DMSO) with only corresponding drug solvents without drugs, as well as blank wells (Blank) with only the medium but without cells were set, and three parallel wells were set in each group. After that, the cells after cell counting were inoculated onto 96-well culture plates, with 100 μL of cell suspension per well, and an inoculation concentration of the cells was 5,000 cells (100 μL)/well. The plates were then cultured in a CO2 (5%) incubator at 37° C. for 48 h. After 48 h, 10 μL of a cell proliferation staining reagent (CCK8) was added to each well, the plates were incubated in a cell incubator for around 2 h, and an absorbance at 450 nm was detected.
(§8) Cell survival rates and median inhibitory concentrations of the drugs on the cells were calculated.
as §7, with “serum+1×P/S+sodium” for “serum+1XP/S+sodium”, “adjusted to an appropriate density.” for “counted.”
(§9) Cell survival rates and median inhibitory concentrations (IC50) of the drugs on the cells were calculated.

[9] = test system: A549 (non-small cell lung cancer); assay: cells; format: cell-based; settings: CCK8, 48 h; for IC50 A549 (non-small cell lung cancer): Table 1
Procedure: as §7, §8
as §7, with “serum+1×P/S+sodium” for “serum+1XP/S+sodium”, “adjusted to an appropriate density.” for “counted.”
as §9

A2780 (ovarian cancer) = assay: cells; format: cell-based; settings: CCK8, 48 h; for IC50 A2780 (ovarian cancer): Table 1
Procedure: as §7, §8
as §7, with “serum+1×P/S+sodium” for “serum+1XP/S+sodium”, “adjusted to an appropriate density.” for “counted.”
as §9

SJSA-1 (sarcoma tissue) = assay: cells; format: cell-based; settings: CCK8, 48 h; for IC50 SJSA-1 (sarcoma tissue): Table 1
Procedure: as §7, §8
as §7, with “serum+1×P/S+sodium” for “serum+1XP/S+sodium”, “adjusted to an appropriate density.” for “counted.”
as §9

[10] = Tumor homogenate activation efficiency, sarcoma tissue (Examples 28, 37); format: in vitro ADME; settings: pH 5.0, 37° C., 2 h; Table 5
Procedure: as §4, §5, §6
as §5, with “HPLC” for “high-performance liquid chromatography (HPLC)”, “Belotecan: […]” for “Belotecan:”

[11] = MTD determination in mice (Examples 27, 36, 44); format: in vivo; settings: mice, monitored for 14 d
Description: Test animals: 6-8 weeks old mice, all female; mice were grouped randomly, with six mice in each group, administered with drugs at different concentration gradients separately and monitored for 14 d. A mouse was euthanized at a loss of 20% of its initial weight and deemed to have died of poisoning.

[12] = test system: colo320 (colorectal cancer tissue); assay: cells; format: cell-based; settings: CCK8, 48 h; Table 6
Procedure: as §7, with “serum+1×P/S+sodium” for “serum+1XP/S+sodium”, “adjusted to an appropriate density.” for “counted.”
as §9

[13] = 5 mg/kg once a week for three weeks, Table 2
[14] = 5 mg/kg once a week for three weeks, Table 7
[15] = 5 mg/kg once a week for four weeks, Table 3
[16] = 5 mg/kg once a week for four weeks, Table 8

CC[C@@]1(O)C(=O)OCc2c1cc1n(c2=O)Cc2c-1nc1ccccc1c2CCN(C(=O)CNC(=O)[C@H](Cc1ccccc1)NC(=O)CNC(=O)CNC(=O)CCOCCOCCOCCOCCOCCOCCNC(=O)CCN1C(=O)C=CC1=O)C1CC1 [MI-6PEG-GGFG-D6] ({Propanoyl(3-maleimido)-PEG6}-GGFG-X3)
Mouse weight (%) ([1]; 15 mg/kg once a week for three weeks, Table 2): +28% | Mouse weight (%) ([1]; 45 mg/kg once a week for three weeks, Table 2): +2% | Percentage of release efficiency (%) Small cell lung cancer tissue (NCI-H841) [2]: 72.1% | Percentage of release efficiency (%) Non-small cell lung cancer tissue (A549) [3]: 83.7% | Percentage of release efficiency (%) Ovarian cancer tissue (A2780) [4]: 66.3% | Percentage of release efficiency (%) Heart tissue [5]: 2.4% | Percentage of release efficiency (%) Breast cancer tissue (SKBR3) [6]: 67.1% | Mouse weight (%) ([7]; 15 mg/kg once a week for four weeks, Table 3): +29% | Mouse weight (%) ([7]; 45 mg/kg once a week for four weeks, Table 3): +19% | IC50 SKBR3 (breast cancer tissue) [8]: 2.30 µg/mL (≈ 1.86 µM) | IC50 A549 (non-small cell lung cancer) [9]: 1.31 µg/mL (≈ 1.06 µM) | IC50 A2780 (ovarian cancer) (A2780 (ovarian cancer)): 1.19 µg/mL (≈ 0.963 µM) | IC50 SJSA-1 (sarcoma tissue) (SJSA-1 (sarcoma tissue)): 0.73 µg/mL (≈ 0.59 µM) | Percentage of release efficiency (%) Sarcoma tissue (SJSA1) [10]: 80.7%

CCNCCc1c2c(nc3ccccc13)-c1cc3c(c(=O)n1C2)COC(=O)[C@]3(O)CC [D2]
Mouse weight (%) [1, 13]: −8% | SJSA-1 (sarcoma tissue) mean tumor volume (mm^3) [1, 13]: 1176.5 mm^3 | SJSA-1 (sarcoma) Growth rate (%) [1, 13]: 1018.01% | Mouse weight (%) [1, 14]: −8% | SJSA-1 (sarcoma tissue) growth rate (%) [1, 14]: 1018.01% | SJSA-1 (sarcoma tissue) mean tumor volume (mm^3) [1, 14]: 1176.5 mm^3 | MTD ([11]; Table 4): 25 mg/kg | MTD ([11]; Table 9): 25 mg/kg | IC50 Colorectal cancer tissue (colo320) [12]: 0.051 µg/mL (≈ 0.122 µM) | Mouse weight (%) [7, 15]: −7% | colo320 (colorectal cancer cell) growth rate (%) [7, 15]: 946.13% | colo320 (colorectal cancer cell) mean tumor volume (mm^3) [7, 15]: 1047.9 mm^3 | Mouse weight (%) [7, 16]: −7% | colo320 (colorectal cancer cell) growth rate (%) [7, 16]: 946.13% | colo320 (colorectal cancer cell) mean tumor volume (mm^3) [7, 16]: 1047.9 mm^3 | IC50 SKBR3 (breast cancer tissue) [8]: 0.036 µg/mL (≈ 0.0858 µM) | IC50 Breast cancer tissue (SKBR3) ([8]; Table 6): 0.036 µg/mL (≈ 0.0858 µM) | IC50 A549 (non-small cell lung cancer) [9]: 0.030 µg/mL (≈ 0.0715 µM) | IC50 Non-small cell lung cancer tissue (A549) ([9]; Table 6): 0.030 µg/mL (≈ 0.0715 µM) | IC50 A2780 (ovarian cancer) (A2780 (ovarian cancer)): 0.018 µg/mL (≈ 0.0429 µM) | IC50 Ovarian cancer tissue (A2780) (A2780 (ovarian cancer); Table 6): 0.018 µg/mL (≈ 0.0429 µM) | IC50 SJSA-1 (sarcoma tissue) (SJSA-1 (sarcoma tissue)): 0.023 µg/mL (≈ 0.0548 µM) | IC50 Sarcoma tissue (SJSA-1) (SJSA-1 (sarcoma tissue); Table 6): 0.023 µg/mL (≈ 0.0548 µM)
